The record followed here is ChEMBL document CHEMBL3817769, “Expanding the chemical space of hydrophobic pharmacophores: the role of hydrophobic substructures in the development of novel transcription modulators” (2016).

The test system of this assay is HL-60. Briefly: Induction of differentiation in human HL60 cells after 20 mins by NBT reduction assay relative to retinoic acid. Format: functional. The arrangement: concentration or dose not given beside the values.
`CC(C)(C)c1cc(C(=O)/C=C/c2ccc(C(=O)O)cc2)cc(C(C)(C)C)c1`: the Activity is listed as 640%. `C[Si](C)(C)c1cc(C(=O)/C=C/c2ccc(C(=O)O)cc2)cc([Si](C)(C)C)c1`: the Activity is 860%. The value for `C[Si](C)(C)c1cc(C(=O)Nc2ccc(C(=O)O)cc2)cc([Si](C)(C)C)c1` [AMSILAROTENE] was 53%; that for `CC(C)(C)c1cc(C(=O)Nc2ccc(C(=O)O)cc2)cc(C(C)(C)C)c1` was 5.6%; that for “4-[3-(2,5-Bis-trimethylgermanyl-phenyl)-3-oxo-propenyl]-benzoic acid (Ch55G)” was 1000%.
